Read-outs that look alike come from different tables or passages of the source.
Assays:
PC-3 [1] = assay: MTT viability assay, PC-3; type: cell-based; details: for IC50: MTT, 24 h incubation, mean ± standard error
Description: (§1) Using concentrations ranging from 0 to 100 μM against PC-3, SKOV-3, and HeLa cancerogenic cell lines, target compounds 4a–l were assessed for their anticancer activities[53] and compared with the commercially available Vinblastine and Doxorubicin. […] The compounds with the greatest cytotoxic activity against the cancerous cell lines PC-3, SKOV-3, and HeLa were 4a–c, 4g, and 4h. […] We selected the cytotoxic active compounds 4a–c, 4g, and 4h to be evaluated against MCF-7/ADR cancerogenic and HFL-1 and WI-38 non-cancerogenic cell lines (Figs. 7, 8 and Table 1).
(§2) The tumor cell lines (PC-3, SKOV-3, and HeLa), resistant cell strains (MCF-7/ADR) and the normal cell lines, (HFL-1, WI-38) were obtained from the American Type Culture Collection (ATCC, Rockville, MD, USA).
(§3) The tumor cell lines were suspended in medium at concentration 5 × 10^4 cells well^−1 in Corning® 96-well tissue culture plates and then incubated for 24 h. The tested compounds with concentrations ranging from 0 to 100 μM were then added into 96-well plates (six replicates) to achieve six different concentrations for each compound. Six vehicle controls with media or 0.5% DMSO were run for each 96 well plate as a control. After incubating for 24 h, the numbers of viable cells were determined by the MTT test[53]. Briefly, the media was removed from the 96 well plates and replaced with 100 μl of fresh culture RPMI 1640 medium without phenol red then 10 μl of the 12 mM MTT stock solution (5 mg of MTT in 1 ml of PBS) to each well including the untreated controls. The 96-well plates were then incubated at 37 °C and 5% CO2 for 4 h. An 85-μl aliquot of the media was removed from the wells, and 50 μl of DMSO was added to each well and mixed thoroughly with the pipette and incubated at 37 °C for 10 min. Then, the optical density was measured at 590 nm with the microplate reader (Sunrise, TECAN, Inc, USA) to determine the number of viable cells and the percentage of viability was calculated as […] where ODt is the mean optical density of wells treated with the tested sample and ODc is the mean optical density of untreated cells. The relation between surviving cells and drug concentration is plotted to get the survival curve of each tumor cell line after treatment with the specified compound. The 50% inhibitory concentration (IC50), the concentration required to cause toxic effects in 50% of intact cells, was estimated from graphic plots of the dose response curve for each concentration.

SKOV-3 = assay: MTT viability assay, SKOV-3; type: cell-based; details: for IC50: MTT, 24 h incubation, mean ± standard error; for times more potency than Doxorubicin, SKOV-3 / times more potency than Vinblastine, SKOV-3: ratio of IC50 values
Description: as §1, §2, §3

HeLa [2] = assay: MTT viability assay, HeLa; type: cell-based; details: 24 h incubation, mean ± standard error
Description: as §1, §2, §3

[3] = system: human diploid fibroblasts (WI-38); assay: MTT viability assay, normal WI-38; type: cell-based; details: normal cell line, 24 h, mean ± standard error
Description: as §1, §2, §3

MCF-7/ADR = assay: MTT viability assay, resistant MCF-7/ADR; type: cell-based; details: for IC50: Homo sapiens, NCI/ADR-RES, MTT, 24 h exposure, mean ± standard error; for activity against MCF-7/ADR cell (in words): with regard to Doxorubicin
Description: as §1, §2, §3

human fetal lung (HFL-1) = assay: MTT viability assay, normal HFL-1; type: cell-based; details: HFL1, normal cell line, 24 h, mean ± standard error
Description: as §1, §2, §3

HCT-116 = system: HCT-116; design: method as in PMID 31586716; details: Fig. 5, 9-Br first generation derivatives; cited from earlier work
HepG-2 = system: HepG-2; design: method as in PMID 31586716; details: Fig. 5, 9-Br first generation derivatives; cited from earlier work
MCF-7 = system: MCF-7; design: method as in PMID 31586716; details: Fig. 5, 9-Br first generation derivatives; cited from earlier work
MIA PaCa-2 = system: MIA PaCa-2; design: method as in PMID 34670333; details: Fig. 5, 9-OMe second generation derivatives; cited from earlier work
MDA-MB-231 = system: MDA-MB-231; design: method as in PMID 34670333; details: Fig. 5, 9-OMe second generation derivatives; cited from earlier work
RPMI 7951 = system: RPMI 7951; design: method as in PMID 34670333; details: Fig. 5, 9-OMe second generation derivatives; cited from earlier work
A549 = system: A549; design: method as in PMID 34670333; details: Fig. 5, 9-OMe second generation derivatives; cited from earlier work
HeLa [4] = system: HeLa; design: method as in PMID 34670333; details: Fig. 5, 9-OMe second generation derivatives; cited from earlier work
PC-3 [5] = system: PC-3; design: method as in PMID 34670333; details: Fig. 5, 9-OMe second generation derivatives; cited from earlier work

## N#CC1=C(N)Oc2ccc3ccc(O)cc3c2C1c1ccc(Cl)cc1 (stereo not drawn) [4d, 3-Amino-1-(4-chlorophenyl)-9-hydroxy-1H-benzo[f]chromene-2-carbonitrile]
PC-3 [1]; Homo sapiens, PC-3
  IC50: 8.8 ± 0.7 µM
other
  melting point: 285 to 286 °C
SKOV-3; Homo sapiens, SK-OV-3
  IC50: 35.6 ± 0.4 µM
HeLa [2]; Homo sapiens, HeLa
  IC50: 21.9 ± 1.1 µM

## N#CC1=C(N)Oc2ccc3ccc(O)cc3c2C1c1ccc(Br)cc1 (stereo not drawn) [4e, 3-Amino-1-(4-bromophenyl)-9-hydroxy-1H-benzo[f]chromene-2-carbonitrile]
PC-3 [1]; Homo sapiens, PC-3
  IC50: 8.8 ± 1.2 µM
other
  melting point: 285 to 286 °C
SKOV-3; Homo sapiens, SK-OV-3
  IC50: 4.8 ± 1.1 µM
HeLa [2]; Homo sapiens, HeLa
  IC50: 7.9 ± 1.6 µM

## Cc1ccc(C2C(C#N)=C(N)Oc3ccc4ccc(O)cc4c32)cc1 (stereo not drawn) [4f, 3-Amino-1-(4-methylphenyl)-9-hydroxy-1H-benzo[f]chromene-2-carbonitrile]
PC-3 [1]; Homo sapiens, PC-3
  IC50: 37.2 ± 1.3 µM
other
  melting point: 258 to 259 °C
SKOV-3; Homo sapiens, SK-OV-3
  IC50: 35.2 ± 1.3 µM
HeLa [2]; Homo sapiens, HeLa
  IC50: 33.7 ± 1.3 µM

## COc1ccc(C2C(C#N)=C(N)Oc3ccc4ccc(O)cc4c32)cc1 (stereo not drawn) [4g, 3-Amino-1-(4-methoxyphenyl)-9-hydroxy-1H-benzo[f]chromene-2-carbonitrile]
PC-3 [1]; Homo sapiens, PC-3
  IC50: 0.9 ± 0.4 µM
PC-3 [1]; ratio of IC50 values, PC-3
  times more potent than Doxorubicin, PC-3: 1.4 times
  times more potent than Vinblastine, PC-3: 8.3 times
other
  melting point: 229 to 230 °C
[3]
  IC50: 84.5 ± 1.1 µM
MCF-7/ADR
  IC50: 30.5 ± 0.7 µM
  activity against MCF-7/ADR cell (in words): inactive
Human fetal lung (HFL-1)
  IC50: 77.5 ± 0.1 µM
SKOV-3; Homo sapiens, SK-OV-3
  IC50: 0.7 ± 0.8 µM
SKOV-3
  times more potency than Doxorubicin, SKOV-3: 1.6 times
  times more potency than Vinblastine, SKOV-3: 4.6 times
HeLa [2]; Homo sapiens, HeLa
  IC50: 0.9 ± 1.5 µM

## N#CC1=C(N)Oc2ccc3ccc(O)cc3c2C1c1ccc([N+](=O)[O-])cc1 (stereo not drawn) [4h, 3-Amino-1-(4-nitrophenyl)-9-hydroxy-1H-benzo[f]chromene-2-carbonitrile]
PC-3 [1]; Homo sapiens, PC-3
  IC50: 0.7 ± 0.4 µM
PC-3 [1]; ratio of IC50 values, PC-3
  times more potent than Vinblastine, PC-3: 10.7 times
other
  melting point: 262 to 263 °C
[3]
  IC50: 79.4 ± 0.1 µM
MCF-7/ADR
  IC50: 19.2 ± 0.7 µM
  activity against MCF-7/ADR cell (in words): inactive
Human fetal lung (HFL-1)
  IC50: 84.9 ± 0.1 µM
SKOV-3; Homo sapiens, SK-OV-3
  IC50: 0.6 ± 0.1 µM
SKOV-3
  times more potency than Doxorubicin, SKOV-3: 1.8 times
  times more potency than Vinblastine, SKOV-3: 5.3 times
HeLa [2]; Homo sapiens, HeLa
  IC50: 0.9 ± 0.4 µM

## N#CC1=C(N)Oc2ccc3ccc(O)cc3c2C1c1ccc(OCc2ccccc2)cc1 (stereo not drawn) [4i, 3-Amino-1-(4-(benzyloxy)phenyl)-9-hydroxy-1H-benzo[f]chromene-2-carbonitrile]
PC-3 [1]; Homo sapiens, PC-3
  IC50: 3.2 ± 1 µM
other
  melting point: 269 to 279 °C
SKOV-3; Homo sapiens, SK-OV-3
  IC50: 3.5 ± 0.3 µM
HeLa [2]; Homo sapiens, HeLa
  IC50: 3.3 ± 0.3 µM

## N#CC1=C(N)Oc2ccc3ccc(O)cc3c2C1c1ccc2c(c1)OCO2 (stereo not drawn) [4j, 3-Amino-1-(benzo[d][1,3]dioxol-5-yl)-9-hydroxy-1H-benzo[f]chromene-2-carbonitrile]
PC-3 [1]; Homo sapiens, PC-3
  IC50: 6.6 ± 0.5 µM
other
  melting point: 260 to 261 °C
SKOV-3; Homo sapiens, SK-OV-3
  IC50: 3.9 ± 0.6 µM
HeLa [2]; Homo sapiens, HeLa
  IC50: 2.5 ± 0.2 µM

## N#CC1=C(N)Oc2ccc3ccc(O)cc3c2C1c1cccnc1 (stereo not drawn) [4k, 3-Amino-9-hydroxy-1-(pyridin-3-yl)-1H-benzo[f]chromene-2-carbonitrile]
PC-3 [1]; Homo sapiens, PC-3
  IC50: 10.6 ± 0.5 µM
other
  melting point: 296 to 297 °C
SKOV-3; Homo sapiens, SK-OV-3
  IC50: 6.3 ± 0.8 µM
HeLa [2]; Homo sapiens, HeLa
  IC50: 76.4 ± 0.7 µM

## N#CC1=C(N)Oc2ccc3ccc(O)cc3c2C1c1ccncc1 (stereo not drawn) [4l, 3-Amino-9-hydroxy-1-(pyridin-4-yl)-1H-benzo[f]chromene-2-carbonitrile]
PC-3 [1]; Homo sapiens, PC-3
  IC50: 17.7 ± 0.7 µM
other
  melting point: 294 to 295 °C
SKOV-3; Homo sapiens, SK-OV-3
  IC50: 5.1 ± 0.8 µM
HeLa [2]; Homo sapiens, HeLa
  IC50: 11.5 ± 0.9 µM

## CC[C@]1(O)C[C@@H]2CN(CCc3c([nH]c4ccccc34)[C@@](C(=O)OC)(c3cc4c(cc3OC)N(C)[C@H]3[C@@](O)(C(=O)OC)[C@H](OC(C)=O)[C@]5(CC)C=CCN6CC[C@]43[C@@H]65)C2)C1 [Vinblastine, reference compound]
PC-3 [1]
  IC50: 7.5 ± 1.3 µM
SKOV-3
  IC50: 3.2 ± 1.2 µM
HeLa [2]
  IC50: 5.7 ± 1.1 µM

## N#CC1=C(N)Oc2ccc3ccc(Br)cc3c2C1c1cccc(Cl)c1 (stereo not drawn) [compound 1]
HCT-116
  IC50: 1.36 µM
HepG-2
  IC50: 0.77 µM
MCF-7
  IC50: 45.8 µM

## N#CC1=C(N)Oc2ccc3ccc(Br)cc3c2C1c1ccc(Cl)cc1 (stereo not drawn) [compound 2]
HCT-116
  IC50: 0.8 µM
HepG-2
  IC50: 1.67 µM
MCF-7
  IC50: 9.63 µM

## N#CC1=C(N)Oc2ccc3ccc(Br)cc3c2C1c1cccc(Cl)c1Cl (stereo not drawn) [compound 3]
HCT-116
  IC50: 0.64 µM
HepG-2
  IC50: 7.59 µM
MCF-7
  IC50: 0.49 µM

## N#CC1=C(N)Oc2ccc3ccc(Br)cc3c2C1c1ccc(Cl)c(Cl)c1 (stereo not drawn) [compound 4]
HCT-116
  IC50: 25 µM
HepG-2
  IC50: 0.47 µM
MCF-7
  IC50: 7.61 µM

## COc1c(Br)cc(Br)cc1C1C(C#N)=C(N)Oc2ccc3ccc(Br)cc3c21 (stereo not drawn) [compound 5]
HCT-116
  IC50: 0.58 µM
HepG-2
  IC50: 0.71 µM
MCF-7
  IC50: 3.67 µM

## COc1ccc2ccc3c(c2c1)C(c1ccc(Br)cc1)C(C#N)=C(N)O3 (stereo not drawn) [compound 6]
MIA PaCa-2
  IC50: 6.8 µM
MDA-MB-231
  IC50: 7.8 µM
RPMI 7951
  IC50: 5.9 µM
A549
  IC50: 12.7 µM
HeLa [4]
  IC50: 11.6 µM
PC-3 [5]
  IC50: 13.6 µM

## COc1ccc2ccc3c(c2c1)C(c1ccc(I)cc1)C(C#N)=C(N)O3 (stereo not drawn) [compound 7]
MIA PaCa-2
  IC50: 6.2 µM
MDA-MB-231
  IC50: 8.9 µM
RPMI 7951
  IC50: 6.5 µM
A549
  IC50: 13.1 µM
HeLa [4]
  IC50: 12.1 µM
PC-3 [5]
  IC50: 12.9 µM

## COc1ccc2ccc3c(c2c1)C(c1ccc(Cl)cc1Cl)C(C#N)=C(N)O3 (stereo not drawn) [compound 8]
MIA PaCa-2
  IC50: 6 µM
MDA-MB-231
  IC50: 7.1 µM
RPMI 7951
  IC50: 5.3 µM
A549
  IC50: 6.8 µM
HeLa [4]
  IC50: 7.6 µM
PC-3 [5]
  IC50: 8.7 µM

## COc1ccc2ccc3c(c2c1)C(c1cc(Cl)ccc1Cl)C(C#N)=C(N)O3 (stereo not drawn) [compound 9]
MIA PaCa-2
  IC50: 6.8 µM
MDA-MB-231
  IC50: 8.1 µM
RPMI 7951
  IC50: 5.7 µM
A549
  IC50: 8.5 µM
HeLa [4]
  IC50: 13.2 µM
PC-3 [5]
  IC50: 11.5 µM

## COc1ccc2ccc3c(c2c1)C(c1ccc(Cl)c(Cl)c1)C(C#N)=C(N)O3 (stereo not drawn) [compound 10]
MIA PaCa-2
  IC50: 6.2 µM
MDA-MB-231
  IC50: 8.4 µM
RPMI 7951
  IC50: 5.1 µM
A549
  IC50: 13.6 µM
HeLa [4]
  IC50: 12.9 µM
PC-3 [5]
  IC50: 14.6 µM

Source: article PMC10981727, “Design, synthesis and bioactivity study on oxygen-heterocyclic-based pyran analogues as effective P-glycoprotein-mediated multidrug resistance in MCF-7/ADR cell” (Scientific Reports, 2024)
